The source of these data is patent US20240216332A1, “METHOD AND PHARMACEUTICAL COMPOSITION FOR TREATING MYOPIA” (GRAND PHARMA (CHINA) CO., LTD., priority 2021, published 2024).

Data set [1] concerns form deprivation myopia guinea pigs. Briefly: Sorbinil and Zopolrestat in form deprivation myopia model, Example 9. The settings on record: FD, Sorbinil 100 μM, Zopolrestat 1 mM; for diopter or axial length parameter versus the vehicle group: each test time point (1-week, 2-week), FIG. 13; for corneal curvature, anterior chamber depth and lens thickness: FIG. 14.
For data set [2] the test system is unchanged. Briefly: Direct eye drop administration in form deprivation myopia model, Example 7. The settings on record: for inhibition rate on myopia: direct eye drop 25 μl twice per day, 0.5% bendazac lysine (self-made); for elongation of axial length compared with the normal saline group: eye drop twice per day for 2 weeks, statistical difference. From the text: All efficacy experiments above were repeated at least twice.

The test system is the same in data set [3]. Kind of data set: m-Hydroxy methylaniline in form deprivation myopia model, Example 10. It is filed as in vivo, guinea pig. The note with it: FD; for effect of preventing or treating myopia: subconjunctival injection 100 μl once daily for 1 week, atropine 0.1%. As for the experimental part:
The efficacy was evaluated using the guinea pig in form deprivation myopia model described in this application. All subjects were measured for diopter and axial length. […] Diopter and axis length parameters were measured at the beginning and after the end of the efficacy experiment.

The subject of data set [4] is guinea pigs with lens induced myopia. Briefly: Lens induced (LI, -4D lens) myopia model, peribulbar injection, Example 3. The data set is classed as in vivo, guinea pig. The settings on record: bendazac lysine 0.5 mg/day peribulbar injection.
The test system of data set [5] is form deprivation myopia (FDM) guinea pigs. Kind of data set: Dose-response of bendazac lysine (0.01%-0.5%) in form deprivation myopia model, Example 5. From the text:
To be more intuitive, percentage are converted to milligram units when plotting.

The test system is the same in data set [6]. Briefly: Choroidal thickness (OCT) in FDM model, Example 6. The data set is classed as in vivo, guinea pig. On the procedure:
(§1) The lenses were purchased from Wenzhou Focusee Technology Co. Ltd. The specific parameters were: center degree 4D, base curve 16 mm, and diameter 11.8 mm. The lenses were fixed in front of the right eye (experimental eye) of the guinea pig and the left eye (fellow eye) was left untreated. […] The choroidal thickness of all eyes in the two myopia models was detected by Spectralis HRA+OCT (Heidelberg Engineering, Heidelberg, Germany) at 30-60 min after the last administration. […] The statistical method was an independent sample T-test.

Data set [7] concerns lens induced myopia (LIM) guinea pigs. Briefly: Choroidal thickness (OCT) in LIM model, Example 6. The data set is classed as in vivo, guinea pig. The note with it: 0.5% bendazac lysine (BDL(S)) subconjunctival injection once daily for 1 week, 30-60 min after last administration. On the procedure:
as §1

The test system of data set [8] is form deprivation myopia guinea pigs. Briefly: Lysine alone and bendazac alone in form deprivation myopia model, Example 8. The settings on record: FD; for progress of myopia (diopter becoming negative, vitreous chamber depth, axial length): subconjunctival injection 100 μl once daily for 2 weeks, equimolar (11.669 mM) preparations, FIG. 8; for ocular abnormalities / pupil, corneal curvature, anterior chamber depth and lens thickness: subconjunctival injection once daily for 2 weeks; for pupil, corneal curvature, anterior chamber depth and lens thickness: FIGS. 10 and 11; for myopia inhibition rate compared with DMSO vehicle control group: bendazac 3.3 mg/ml (11.669 mM) subconjunctival injection 100 μl once daily. It is filed as in vivo, guinea pig.

In data set [9] the test system is guinea pigs with form deprivation myopia. Kind of data set: Form deprivation (FD) myopia model, peribulbar injection, Example 3. The note with it: for induced myopia (diopter) / myopia inhibition rate compared with normal saline group: peribulbar injection once daily (bendazac lysine 0.5 mg/day; atropine 0.1%, 100 μL).
Setting [10] is: FD, 0.5% bendazac lysine, 0.1% atropine.
Where [11] appears, read: m-hydroxy methylaniline 5 mM, FIG. 15.
Where [12] appears, read: LI (-4D lens), 1-week of administration.

In the case of `O=C1NC(=O)[C@@]2(CCOc3ccc(F)cc32)N1` [Sorbinil], in data set [1], the “diopter or axial length parameter versus the vehicle group” value was “no significant difference”; the “corneal curvature, anterior chamber depth and lens thickness” value is listed as “no effect”. For the same compound, the “therapeutic effect on myopia” value in [1] (subconjunctival injection 100 μl once daily for 2 weeks) was “no therapeutic effect on myopia”.
In the case of `O=C(O)Cc1nn(Cc2nc3cc(C(F)(F)F)ccc3s2)c(=O)c2ccccc12` [Zopolrestat], in [1], the “diopter or axial length parameter versus the vehicle group” value is listed as “no significant difference”; the “corneal curvature, anterior chamber depth and lens thickness” value was “no effect”.
As to `CN1[C@@H]2CC[C@H]1C[C@@H](OC(=O)C(CO)c1ccccc1)C2` (some centres unmarked) [atropine], in data set [2] (FD, 0.01% atropine eye drops, same administration conditions), the “therapeutic effect (diopter or axial length parameter)” value was “No therapeutic effect was observed”. In addition, the “inhibition rate on myopia” value is recorded as 28.1% in data set [2] (FD, 1-week, 0.1% atropine) and 36.9% in data set [2] (FD, 2-week, 0.1% atropine). Also, the “elongation of axial length compared with the normal saline group” value in data set [2] (setting [10]) was “significantly inhibit elongation of axial length”. Besides, the “ocular adverse reactions during the administration” value in data set [2] (FD, eye drop twice per day, 0.5% bendazac lysine, 0.1% atropine) was “pupil dilation adverse reactions”. In addition, the “corneal curvature, anterior chamber and lens” value in data set [2] (FD, eye drop twice per day, 0.5% bendazac lysine, 0.1% atropine, FIG. 7) is given as “not affected”. Moreover, the “anterior chamber depth and lens thickness” value in [3] (0.1% atropine, FIG. 15) was “unaffected”. For the same compound, the pupil entry in data set [3] (0.1% atropine, all animals tested in this group) is “pupil dilation”. The “effect of preventing or treating myopia” value in data set [3] (setting [11]) is listed as “normal effect for treating myopia”.
For the compound `O=C(O)COc1nn(Cc2ccccc2)c2ccccc12` [bendazac lysine, L-lysine (1-benzyl-1H-indazol-3-yloxy) acetate], in data set [4] (setting [12]), the “induced myopia (diopter)” value is on record as −3.49±1.15 D and the “myopia inhibition rate compared to the normal saline group” value is recorded as 21.0%. Further, the “elongation of the vitreous chamber depth and the axial length” value in data set [4] (LI, 1 week) is listed as “inhibited”. For the same compound, in data set [5] (FDM, 0.01% bendazac lysine, 2-week, no statistical difference), the “effect in terms of the parameter diopter” value is given as “slightly stronger than the negative control group”. The “progress of myopia, dose-response” value in data set [5] (FDM, 0.01%, 0.05%, 0.1%, 0.5% in normal saline, subconjunctival injection 100 μl once daily for 2 weeks) is “dose-dependently retarded the progress of myopia”. Further, the “therapeutic effect on myopia (progress of diopter becoming negative)” value in data set [5] (FDM, 0.05% and 0.1% bendazac lysine preparations) is recorded as “significant therapeutic effect on myopia”. Besides, the “increase in vitreous chamber depth (VCD) and elongation of axial length (AL)” value in data set [5] (FDM, 0.05%, 0.1% and 0.5% bendazac lysine, FIG. 3) is “inhibit the increase in vitreous chamber depth (VCD) and the elongation of axial length (AL)”. Besides, in data set [5] (FDM, 0.5% bendazac lysine, 1-week after administration, no statistical difference), the “therapeutic effect on myopia in terms of diopter, compared with 0.1% atropine” value was “better therapeutic effect on myopia than 0.1% atropine”. In data set [5] (guinea pig, in vivo), the “anterior chamber depth, lens thickness and pupil” value is recorded as “not affected”; the “ocular irritation and ocular abnormalities during administration” value was “No ocular irritation and any ocular abnormalities were observed”. In data set [6] (FDM and LIM, 0.5% BDL(S)), the “corneal curvature (RCC), anterior chamber depth (ACD), lens thickness (LT)” value is given as “unaffected”. The “mean difference in choroidal thickness between the experimental eye and the fellow eye” value in [6] (FDM, 0.5% bendazac lysine eye drops (BDL(S)) subconjunctival injection 100 μl once daily for 2 weeks, 30-60 min after last administration) is listed as −9.20 μm. The “mean difference in choroidal thickness between the experimental and the fellow eyes” value in data set [7] is recorded as −6.31 μm. The “inhibition rate on myopia” value in [2] (FD, 1-week, 0.1% atropine) came to 35.5%. Moreover, the “inhibition rate on myopia” value in data set [2] (FD, 2-week, 0.1% atropine) worked out at 33.9%. Further, the “elongation of axial length compared with the normal saline group” value in data set [2] (setting [10]) was “significantly inhibit elongation of axial length”. Besides, in data set [2] (guinea pig, in vivo), the “corneal curvature, anterior chamber and lens” value is recorded as “not affected”; the “ocular adverse reactions during the administration” value is “no obvious ocular abnormalities”. In [8], the “progress of myopia (diopter becoming negative, vitreous chamber depth, axial length)” value was “effectively inhibited the progress of diopter becoming negative”; the ocular abnormalities entry was “no obvious ocular abnormalities”; the “pupil, corneal curvature, anterior chamber depth and lens thickness” value is recorded as “not affected”. Besides, in [9] (FD and LI groups, 0.5 mg/day peribulbar injection, FIG. 2), the “corneal curvature (RCC), anterior chamber depth (ACD), lens thickness (LT)” value is recorded as “not affected”. In data set [9] (FD, 1-week of administration), the “induced myopia (diopter)” value is on record as −2.15±1.09 D and the “myopia inhibition rate compared with normal saline group” value came to 42.6%. In addition, in data set [9] (FD, 2-week of administration), the “induced myopia (diopter)” value is listed as −3.46 D and the “myopia inhibition rate compared with normal saline group” value came to 43.9%. Also, the “increase in vitreous chamber depth and axial length” value in data set [9] (FD, bendazac lysine 0.5 mg/day peribulbar injection, FIG. 1) was “inhibited”.
Regarding `O=C(O)COc1nn(Cc2ccccc2)c2ccccc12` [bendazac, α-[(1-benzyl-1H-indazol-3-yl)oxy] acetic acid], the “myopia inhibition rate compared with DMSO vehicle control group” value in data set [8] (1-week) worked out at 33.4%; in data set [8] (2-week), 30.1%. Moreover, the “mean difference in the choroidal thickness between the experimental eyes and the fellow eyes” value in data set [8] (2-week after administration of bendazac alone, FIG. 12) is reported as −8.47 μm. In data set [8] (bendazac alone, statistical difference, FIG. 9), the “elongation of axial length and increase of vitreous chamber depth compared with the DMSO vehicle group” value was “significantly inhibited elongation of axial length and reduced the increase of vitreous chamber depth”.
For the compound `NCCCC[C@H](N)C(=O)O` [lysine], in data set [8], the “progress of myopia (diopter becoming negative, vitreous chamber depth, axial length)” value is “no inhibitory effect on the progress of myopia”; the ocular abnormalities entry is reported as “no obvious ocular abnormalities”; the “pupil, corneal curvature, anterior chamber depth and lens thickness” value is “not affected”.
For the compound m-hydroxy methylaniline, the “elongation of axial length and increase of vitreous chamber depth” value in data set [3] (1 week, m-hydroxy methylaniline 5 mM) is “no inhibitory effect on elongation of axial length and no slowing effect on the increase of vitreous chamber depth”. Moreover, in data set [3] (setting [11]), the “effect of preventing or treating myopia” value is recorded as “no effect of preventing or treating myopia”.
